Test results as given in US12370235B2, “Synthetic, non-natural antimicrobial peptides inspired by Staphylococcus auricularis delta toxin” (University of Saskatchewan, priority 2021, dated 2025).
Read-outs that look alike come from different tables or passages of the source. Ends that are not written are not given here.

Experiments:
[1] = test system: S. aureus / MRSA (ATCC MP-2 panel); format: cell-based, Staphylococcus aureus
Method in brief: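 MIC by broth microdilution in cation-adjusted Mueller Hinton broth: cultures diluted to OD 6×10^−4 and exposed to 2-fold peptide dilution series, standing overnight at 37° C. MIC = lowest peptide concentration with no visible growth. Panel: one methicillin-sensitive S. aureus plus 7 MRSA strains of distinct SCCmec genotypes.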

[2] = test system: MRSA ATCC 33592; experiment: SYTOX Green membrane integrity assay; format: cell-based, Staphylococcus aureus; conditions: one fourth to four-fold the MIC
Protocol: Membrane disruption and depolarization are commonly reported mechanisms of AMP action. Two indirect assays that rely on fluorescent dyes were employed to assess the interaction of STIP3-29 and D-STIP3-29 with bacterial membranes. First, changes to SYTOX fluorescence was measured when MRSA ATCC 33592 was treated with increasing peptide concentrations ranging from one fourth to four-fold the MIC. […] Next, DiSC3(5), a cationic dye that binds to polarized membranes was used to report on possible depolarization related to AMP treatment. […] Thus, without wishing to be bound by theory, a more conservative explanation of the results is that the cationic peptides increase membrane permeability to SYTOX and that the like-charge of the AMPs to the reporter of polarization may confound the interpretation of the indirect assay. For example, the AMPs may simply displace the self-quenching DiSC3(5) molecules from the membrane surface without causing depolarization.

[3] = test system: 3D EpiDerm skin tissues; experiment: Peptide cytotoxicity, 3D EpiDerm skin tissues, alamarBlue; format: cell-based, human; conditions: 250 μg/mL, 24 h
Protocol: Peptide cytotoxicity. In vitro cytotoxicity was measured using the 3D EpiDerm skin tissues and HeLa Cells using a fluorescent reporter of cell viability, alamarBlue (ThermoFisher Scientific). 3D EpiDerm skin tissues (MatTek EPI-200-AFAB) were transferred to a 12 well plate containing 600 μL of AFAB-assay medium supplemented with 10% v/v alamarBlue. […] HeLa cells were seeded in a 96-well plate (2×10^4 cells/per well) and incubated overnight at 37° C. and 5% CO2 in a humidified incubator to prepare wells at ˜50% confluency of adherent cells. After the incubation, spent DMEM was removed and cells were washed with PBS. alamarBlue-containing medium was prepared by mixing Phenol Red-free DMEM with alamarBlue solution at a 9:1 ratio and a 180 μl volume was added to each well. Cells were treated with peptides varying from 3.25 to 200 μg/mL and then incubated for 24 h. The fluorescence intensities of treated cultures were normalized to values measured for an untreated control group. After the 24 h incubation period, alamarBlue fluorescence was measured at 590 nm upon excitation at 560 nm using Varioskan Lux plate reader (Thermo Scientific) plate reader.

With “TVGGLVKWILKTVKKFA-NH2 [STIP3-29, TVGGLVKWILKTVKKFA-NH2]” the “MIC, MRSA” value [1] was 6.25 µg/mL, the “MIC, MRSA” value ([1]; molar) was 3.3 µM and the “fold improvement of activity (MIC)” value ([1]; relative to STIP3-1, S. aureus / MRSA) was 16 fold. For the same substance, the SYTOX fluorescence change [2] was “rapid and concentration dependent increase in SYTOX fluorescence” and the “indirect measure of tissue health (alamarBlue)” value [3] was “appeared to be unaffected”.
